# Test results published in patent US20260265238A1, “COMPOUNDS AND PHARMACEUTICAL COMPOSITIONS THAT DEGRADE SWI/SNF-RELATED MATRIX-ASSOCIATED ACTIN-DEPENDENT REGULATOR OF CHROMATIN SUBFAMILY A” (Plexium, Inc., priority 2023, published 2026).
# Legend:
# [1] = molecular target: T1, SMARCA2-HiBiT HeLa cells (protein which is expressed from the SMARCA2 gene) (Homo sapiens, UniProt P51531); experiment: SMARCA2 degradation assay (HiBiT-fusion HeLa cell line, 24 h, luminescence); type: cell-based
# T1 construct: protein which is expressed from the SMARCA2 and SMARCA4 genes; host or cells: HeLa (SMARCA2-HiBiT engineered line)
# Outline: (§1)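 In this 24-hour cellular degradation readout, HiBiT-tagged HeLa lines received compound at up to typically 10 μM down to 300 pM in 10 points. After lysis with LgBiT and substrate, luminescence signals were used to build dose-response curves for DC50.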
# [2] = molecular target: T2, SMARCA4-HiBiT HeLa cells (protein which is expressed from the SMARCA4 gene) (Homo sapiens, UniProt P51532); experiment: SMARCA4 degradation assay (HiBiT-fusion HeLa cell line, 24 h, luminescence); type: cell-based
# T2 construct: protein which is expressed from the SMARCA2 and SMARCA4 genes; host or cells: HeLa (SMARCA4-HiBiT engineered line)
# Outline: as §1
# T2 sequence (P51532 whole entry, the tested form may be a part): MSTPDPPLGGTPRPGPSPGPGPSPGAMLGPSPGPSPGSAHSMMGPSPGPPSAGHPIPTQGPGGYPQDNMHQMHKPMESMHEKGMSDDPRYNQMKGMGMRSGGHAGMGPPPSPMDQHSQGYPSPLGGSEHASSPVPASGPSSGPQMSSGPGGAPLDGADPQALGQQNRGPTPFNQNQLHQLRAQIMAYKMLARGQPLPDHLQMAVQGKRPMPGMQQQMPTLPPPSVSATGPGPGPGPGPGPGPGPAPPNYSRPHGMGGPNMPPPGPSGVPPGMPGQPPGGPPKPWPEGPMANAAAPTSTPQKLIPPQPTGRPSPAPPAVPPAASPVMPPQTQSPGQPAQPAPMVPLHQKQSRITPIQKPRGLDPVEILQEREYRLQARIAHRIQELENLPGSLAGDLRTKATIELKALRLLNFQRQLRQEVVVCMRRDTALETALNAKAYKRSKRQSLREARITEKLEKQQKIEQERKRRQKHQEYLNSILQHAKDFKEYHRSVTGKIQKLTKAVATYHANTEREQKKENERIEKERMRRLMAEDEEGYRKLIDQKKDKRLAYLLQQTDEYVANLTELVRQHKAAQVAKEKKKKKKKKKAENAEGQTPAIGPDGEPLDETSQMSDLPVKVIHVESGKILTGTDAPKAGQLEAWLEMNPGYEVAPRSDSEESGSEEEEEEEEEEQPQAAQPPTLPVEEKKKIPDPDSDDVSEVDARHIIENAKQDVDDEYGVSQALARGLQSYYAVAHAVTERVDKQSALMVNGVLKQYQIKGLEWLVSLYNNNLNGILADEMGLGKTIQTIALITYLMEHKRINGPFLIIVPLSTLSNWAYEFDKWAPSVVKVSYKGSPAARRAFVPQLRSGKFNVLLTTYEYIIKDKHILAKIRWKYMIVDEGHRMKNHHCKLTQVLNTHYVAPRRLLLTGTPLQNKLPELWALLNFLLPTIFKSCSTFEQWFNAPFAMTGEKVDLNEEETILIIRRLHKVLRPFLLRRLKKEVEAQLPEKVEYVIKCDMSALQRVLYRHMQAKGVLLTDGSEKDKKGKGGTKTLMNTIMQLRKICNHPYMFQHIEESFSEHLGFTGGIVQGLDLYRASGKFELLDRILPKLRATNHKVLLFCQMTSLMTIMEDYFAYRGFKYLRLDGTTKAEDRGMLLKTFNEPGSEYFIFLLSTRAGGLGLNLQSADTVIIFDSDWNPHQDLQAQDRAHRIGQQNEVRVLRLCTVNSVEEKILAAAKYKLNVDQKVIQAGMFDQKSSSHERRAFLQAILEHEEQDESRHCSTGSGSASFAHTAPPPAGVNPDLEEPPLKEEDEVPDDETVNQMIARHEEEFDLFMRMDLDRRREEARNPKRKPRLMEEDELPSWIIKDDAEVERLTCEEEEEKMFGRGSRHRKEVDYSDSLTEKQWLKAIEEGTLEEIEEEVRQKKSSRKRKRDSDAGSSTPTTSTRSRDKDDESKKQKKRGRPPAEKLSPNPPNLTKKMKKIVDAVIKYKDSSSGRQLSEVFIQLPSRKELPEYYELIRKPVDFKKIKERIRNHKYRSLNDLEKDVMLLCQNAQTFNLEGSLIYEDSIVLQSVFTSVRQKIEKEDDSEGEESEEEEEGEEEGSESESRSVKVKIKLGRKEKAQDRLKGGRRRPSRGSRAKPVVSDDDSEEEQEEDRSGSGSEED
# T1 sequence (P51531 whole entry, the tested form may be a part): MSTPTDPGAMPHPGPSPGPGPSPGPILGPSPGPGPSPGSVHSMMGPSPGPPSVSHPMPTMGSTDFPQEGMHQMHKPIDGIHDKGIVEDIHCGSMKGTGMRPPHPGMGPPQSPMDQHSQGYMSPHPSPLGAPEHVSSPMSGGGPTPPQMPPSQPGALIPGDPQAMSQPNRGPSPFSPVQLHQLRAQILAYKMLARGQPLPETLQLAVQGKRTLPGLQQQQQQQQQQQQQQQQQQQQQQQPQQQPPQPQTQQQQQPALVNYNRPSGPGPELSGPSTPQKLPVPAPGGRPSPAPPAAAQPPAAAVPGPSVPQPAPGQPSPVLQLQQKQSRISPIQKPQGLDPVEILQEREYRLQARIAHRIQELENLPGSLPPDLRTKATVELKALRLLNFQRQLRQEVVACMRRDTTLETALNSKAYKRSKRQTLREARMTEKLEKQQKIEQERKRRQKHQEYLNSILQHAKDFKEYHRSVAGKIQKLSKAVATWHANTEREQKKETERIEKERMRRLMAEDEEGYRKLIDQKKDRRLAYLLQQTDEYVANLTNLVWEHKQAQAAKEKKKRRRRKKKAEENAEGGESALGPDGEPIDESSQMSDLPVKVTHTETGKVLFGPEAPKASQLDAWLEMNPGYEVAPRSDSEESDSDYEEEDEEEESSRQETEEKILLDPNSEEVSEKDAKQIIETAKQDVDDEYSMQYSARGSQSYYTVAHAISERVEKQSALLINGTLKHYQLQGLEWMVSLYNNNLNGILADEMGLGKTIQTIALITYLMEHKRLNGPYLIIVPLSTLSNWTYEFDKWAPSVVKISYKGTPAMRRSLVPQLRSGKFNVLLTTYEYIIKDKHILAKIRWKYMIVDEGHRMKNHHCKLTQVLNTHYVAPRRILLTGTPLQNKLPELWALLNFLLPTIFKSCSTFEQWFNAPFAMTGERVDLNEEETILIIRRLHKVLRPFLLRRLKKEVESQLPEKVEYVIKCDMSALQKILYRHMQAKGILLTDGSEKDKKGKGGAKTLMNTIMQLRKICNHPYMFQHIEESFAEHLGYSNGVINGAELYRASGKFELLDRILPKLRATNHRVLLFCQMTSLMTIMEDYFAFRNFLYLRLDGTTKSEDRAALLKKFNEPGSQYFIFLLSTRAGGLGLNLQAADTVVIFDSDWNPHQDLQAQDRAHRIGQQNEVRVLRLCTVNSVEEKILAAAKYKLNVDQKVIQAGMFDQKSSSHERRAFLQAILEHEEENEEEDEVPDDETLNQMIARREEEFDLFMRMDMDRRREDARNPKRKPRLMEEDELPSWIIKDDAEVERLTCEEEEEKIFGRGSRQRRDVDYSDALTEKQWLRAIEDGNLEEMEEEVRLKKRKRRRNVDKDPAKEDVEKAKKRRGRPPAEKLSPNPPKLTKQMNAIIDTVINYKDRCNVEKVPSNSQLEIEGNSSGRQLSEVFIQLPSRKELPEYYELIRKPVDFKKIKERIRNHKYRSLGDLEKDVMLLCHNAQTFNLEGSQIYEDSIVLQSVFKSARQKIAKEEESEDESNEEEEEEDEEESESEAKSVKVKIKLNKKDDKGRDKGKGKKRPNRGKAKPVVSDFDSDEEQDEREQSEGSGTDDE
Structure (SMILES),DC50 [1],SMARCA2 % Degradation @ 1 μM [1],DC50 [2],inhibition at 1 µM [2]
"Nc1nnc(-c2ccccc2O)cc1N1CCN(c2ccnc(C#CCNC(=O)c3cc4n(n3)CCCO4)n2)CC1 [Compound P-57, N-(3-(4-(4-(3-amino-6-(2-hydroxyphenyl)pyridazin-4-yl)piperazin-1-y1)pyrimidin-2-yl)prop-2-yn-1-yl)-6,7-dihydro-5H-pyrazolo[5,1-b][1,3]oxazine-2-carboxamide]",0.05 to 0.5 µM,++ (++=30-70%),< 0.05 µM,30 to 70%
"Nc1nnc(-c2ccccc2O)cc1N1CCN(c2ccnc(C#CCNC(=O)c3cn4ccncc4n3)n2)CC1 [Compound P-60, N-(3-(4-(4-(3-amino-6-(2-hydroxyphenyl)pyridazin-4-yl)piperazin-1-yl)pyrimidin-2-yl)prop-2-yn-1-yl)imidazo[1,2-a]pyrazinc-2-carboxamidc]",0.05 to 0.5 µM,++ (++=30-70%),0.05 to 0.5 µM,30 to 70%
"Nc1nnc(-c2ccccc2O)cc1N1CCN(c2ccnc(C#CCNC(=O)C3COc4ccccc4O3)n2)CC1 (stereo not shown) [Compound P-61, N-(3-(4-(4-(3-amino-6-(2-hydroxyphenyl)pyridazin-4-yl)piperazin-1-yl)pyrimidin-2-yl)prop-2-yn-1-yl)-2,3-dihydrobenzo[b][1,4]dioxine-2-carboxamide]",0.05 to 0.5 µM,++ (++=30-70%),0.05 to 0.5 µM,30 to 70%
"Nc1nnc(-c2ccccc2O)cc1N1CCN(c2ccnc(C#CCNC(=O)c3cccc4ccoc34)n2)CC1 [Compound P-63, N-(3-(4-(4-(3-amino-6-(2-hydroxyphenyl)pyridazin-4-yl)piperazin-1-yl)pyrimidin-2-yl)prop-2-yn-1-yl)benzofuran-7-carboxamide]",0.05 to 0.5 µM,++ (++=30-70%),0.05 to 0.5 µM,30 to 70%
"Nc1nnc(-c2ccccc2O)cc1N1CCN(c2ccnc(C#CCNC(=O)c3ccc4ccccc4n3)n2)CC1 [Compound P-64, N-(3-(4-(4-(3-amino-6-(2-hydroxyphenyl)pyridazin-4-yl)piperazin-1-yl)pyrimidin-2-yl)prop-2-yn-1-yl)quinoline-2-carboxamide]",0.05 to 0.5 µM,++ (++=30-70%),0.05 to 0.5 µM,30 to 70%
"Nc1nnc(-c2ccccc2O)cc1N1CCN(c2ccnc(C#CCNC(=O)c3cnn4ccccc34)n2)CC1 [Compound P-65, N-(3-(4-(4-(3-amino-6-(2-hydroxyphenyl)pyridazin-4-yl)piperazin-1-yl)pyrimidin-2-yl)prop-2-yn-1-yl)pyrazolo[1,5-a]pyridine-3-carboxamide]",0.05 to 0.5 µM,++ (++=30-70%),0.05 to 0.5 µM,30 to 70%
"Nc1nnc(-c2ccccc2O)cc1N1CCN(c2ccnc(C#CCNC(=O)c3cnc4ccccn34)n2)CC1 [Compound P-66, N-(3-(4-(4-(3-amino-6-(2-hydroxyphenyl)pyridazin-4-yl)piperazin-1-yl)pyrimidin-2-yl)prop-2-yn-1-yl)imidazo[1,2-a]pyridine-3-carboxamide]",0.05 to 0.5 µM,++ (++=30-70%),0.05 to 0.5 µM,30 to 70%
"Nc1nnc(-c2ccccc2O)cc1N1CCN(c2ccnc(C#CCNC(=O)c3cc4n(n3)CCCC4)n2)CC1 [Compound P-69, N-(3-(4-(4-(3-amino-6-(2-hydroxyphenyl)pyridazin-4-yl)piperazin-1-yl)pyrimidin-2-yl)prop-2-yn-1-yl)-4,5,6,7-tetrahydropyrazolo[1,5-a]pyridine-2-carboxamide]",0.05 to 0.5 µM,++ (++=30-70%),< 0.05 µM,30 to 70%
"Cc1cc(C)n2ncc(C(=O)NCC#Cc3nccc(N4CCN(c5cc(-c6ccccc6O)nnc5N)CC4)n3)c2n1 [Compound P-70, N-(3-(4-(4-(3-amino-6-(2-hydroxyphenyl)pyridazin-4-yl)piperazin-1-yl)pyrimidin-2-yl)prop-2-yn-1-yl)-5,7-dimethylpyrazolo[1,5-a]pyrimidine-3-carboxamide]",0.05 to 0.5 µM,++ (++=30-70%),0.05 to 0.5 µM,30 to 70%
"Nc1nnc(-c2ccccc2O)cc1N1CCN(c2ccnc(C#CCNC(=O)c3cnc4ccccc4n3)n2)CC1 [Compound P-72, N-(3-(4-(4-(3-amino-6-(2-hydroxyphenyl)pyridazin-4-yl)piperazin-1-yl)pyrimidin-2-yl)prop-2-yn-1-yl)quinoxaline-2-carboxamide]",< 0.05 µM,++ (++=30-70%),< 0.05 µM,30 to 70%
"Nc1nnc(-c2ccccc2O)cc1N1CCCN(c2ccnc(C#CCNC(=O)c3cc4ncccn4n3)n2)CC1 [Compound P-76, N-(3-(4-(4-(3-amino-6-(2-hydroxyphenyl)pyridazin-4-yl)-1,4-diazepan-1-yl)pyrimidin-2-yl)prop-2-yn-1-yl)pyrazolo[1,5-a]pyrimidine-2-carboxamide]",0.05 to 0.5 µM,+++ (+++=>70%),0.05 to 0.5 µM,> 70%
"Nc1nnc(-c2ccccc2O)cc1N1CCC2C1CCN2c1ccnc(C#CCNC(=O)c2cc3ncccn3n2)n1 (stereo not shown) [Compound P-77, N-(3-(4-(4-(3-amino-6-(2-hydroxyphenyl)pyridazin-4-yl)hexahydropyrrolo[3,2-b]pyrrol-1(2H)-yl)pyrimidin-2-yl)prop-2-yn-1-yl)pyrazolo[1,5-a]pyrimidine-2-carboxamide]",0.5 to 5 µM,+ (+=<30%),0.05 to 0.5 µM,30 to 70%

# Continued, values first:
DC50 [1],SMARCA2 % Degradation @ 1 μM [1],DC50 [2],inhibition at 1 µM [2],Structure (SMILES)
0.05 to 0.5 µM,++ (++=30-70%),0.05 to 0.5 µM,30 to 70%,"Nc1nnc(-c2ccccc2O)cc1N1CCN(c2ccnc(C#CCNC(=O)c3cc4n(n3)CCOC4)n2)CC1 [Compound P-58, N-(3-(4-(4-(3-amino-6-(2-hydroxyphenyl)pyridazin-4-yl)piperazin-1-yl)pyrimidin-2-yl)prop-2-yn-1-yl)-6,7-dihydro-4H-pyrazolo[5,1-c][1,4]oxazine-2-carboxamide]"
0.05 to 0.5 µM,++ (++=30-70%),> 5 µM,,"Nc1nnc(-c2ccccc2O)cc1N1CCN(c2ccnc(C#CCNC(=O)c3cc4n(n3)CCC4)n2)CC1 [Compound P-59, N-(3-(4-(4-(3-amino-6-(2-hydroxyphenyl)pyridazin-4-yl)piperazin-1-yl)pyrimidin-2-yl)prop-2-yn-1-yl)-5,6-dihydro-4H-pyrrolo[1,2-b]pyrazole-2-carboxamide]"
0.05 to 0.5 µM,++ (++=30-70%),0.05 to 0.5 µM,30 to 70%,"Cc1ncsc1C(=O)NCC#Cc1nccc(N2CCN(c3cc(-c4ccccc4O)nnc3N)CC2)n1 [Compound P-62, N-(3-(4-(4-(3-amino-6-(2-hydroxyphenyl)pyridazin-4-yl)piperazin-1-yl)pyrimidin-2-yl)prop-2-yn-1-yl)-4-methylthiazole-5-carboxamide]"
0.05 to 0.5 µM,+ (+=<30%),0.05 to 0.5 µM,< 30%,"Cn1cnc(C(=O)NCC#Cc2nccc(N3CCN(c4cc(-c5ccccc5O)nnc4N)CC3)n2)c1 [Compound P-67, N-(3-(4-(4-(3-amino-6-(2-hydroxyphenyl)pyridazin-4-yl)piperazin-1-yl)pyrimidin-2-yl)prop-2-yn-1-yl)-1-methyl-1H-imidazole-4-carboxamide]"
0.05 to 0.5 µM,+ (+=<30%),> 5 µM,,"CC(=O)NCC#Cc1nccc(N2CCN(c3cc(-c4ccccc4O)nnc3N)CC2)n1 [Compound P-68, N-(3-(4-(4-(3-amino-6-(2-hydroxyphenyl)pyridazin-4-yl)piperazin-1-yl)pyrimidin-2-yl)prop-2-yn-1-yl)acetamide]"
0.05 to 0.5 µM,++ (++=30-70%),0.05 to 0.5 µM,30 to 70%,"Nc1nnc(-c2ccccc2O)cc1N1CCN(c2ccnc(C#CCNC(=O)c3cnn4cccnc34)n2)CC1 [Compound P-71, N-(3-(4-(4-(3-amino-6-(2-hydroxyphenyl)pyridazin-4-yl)piperazin-1-yl)pyrimidin-2-yl)prop-2-yn-1-yl)pyrazolo[1,5-a]pyrimidine-3-carboxamide]"
0.05 to 0.5 µM,++ (++=30-70%),0.05 to 0.5 µM,30 to 70%,"Nc1nnc(-c2ccccc2O)cc1N1CCN(c2ccnc(C#CCNC(=O)c3cc4ccccc4[nH]3)n2)CC1 [Compound P-73, N-(3-(4-(4-(3-amino-6-(2-hydroxyphenyl)pyridazin-4-yl)piperazin-1-yl)pyrimidin-2-yl)prop-2-yn-1-yl)-1H-indole-2-carboxamide]"
0.05 to 0.5 µM,++ (++=30-70%),0.05 to 0.5 µM,30 to 70%,"Cc1c(C(=O)NCC#Cc2nccc(N3CCN(c4cc(-c5ccccc5O)nnc4N)CC3)n2)oc2ccccc12 [Compound P-74, N-(3-(4-(4-(3-amino-6-(2-hydroxyphenyl)pyridazin-4-yl)piperazin-1-yl)pyrimidin-2-yl)prop-2-yn-1-yl)-3-methylbenzofuran-2-carboxamide]"
0.05 to 0.5 µM,++ (++=30-70%),< 0.05 µM,30 to 70%,"Nc1nnc(-c2ccccc2O)cc1N1CCN(c2ccnc(C#CCNC(=O)c3cc4ccccc4o3)n2)CC1 [Compound P-75, N-(3-(4-(4-(3-amino-6-(2-hydroxyphenyl)pyridazin-4-yl)piperazin-1-yl)pyrimidin-2-yl)prop-2-yn-1-yl)benzofuran-2-carboxamide]"
